Measurements from patent US20190008918A1, “IMMUNOMODULATION THERAPIES FOR CANCER” (BIOXCEL CORPORATION, priority 2016, published 2019).

What was measured:
[1] = system: MC38 mouse colon cancer cell line; test: Antitumor efficacy in MC38 mouse model of colon adenocarcinoma (tumor volume, % TGI); type: in vivo, mouse (C57BL/6); details: day 10, Mifamurtide 30 μg biw and/or PD-1 antagonist 5 mg/kg biw
Description: Six to seven-week-old female C57BL/6 mice (20±4 g weight) were used in the studies. Mice received food and water ad libitum. The study protocol, the procedures involving the care and use of animals were reviewed and approved by the Institutional Animal Care and Use Committee (IACUC) to ensure compliance with the regulations of the Association for Assessment and Accreditation of Laboratory Animal Care (AAALAC).
(§1) DMEM medium (Cat. No.: 11960-044). Glutamax™ (Cat. No.: 35050061), Trypsin-EDTA (0.25%) (Cat. No.: 25200-056), Penicillin-Streptomycin (Cat. No.: 15070-063), Hanks' Balanced Salt solution (Cat. No.: 14175-095) were procured form Gibco, while Fetal Bovine Serum (FBS) Cat. No.: 004-001-1A was purchased from Biological Industries. PD-1 antagonist (Cat. No.: BE0146) was supplied by BioXcell. Stock solutions of PD-1 antagonist at 1 mg/ml were kept at 4° C. prior to use. Dosing solutions of PD-1 antagonist were prepared freshly before every administration in sterile phosphate buffered saline (pH 7.0) and maintained at 4° C. The test article Mifamurtide was procured from Sigma (SML0195) and prepared freshly as a working solution at concentration of 300 μg/ml and 100 μg/ml in sterile phosphate buffered saline (pH 7.0), to be administered at a total dose of 30 μg (corresponds to 1.5 mg/kg in mice) and 10 μg (corresponds to 0.5 mg/kg in mice) respectively, into the animal as indicated in Table 1. Luminex assay kit: MCYTOMAG-70K-32 was commercially available from Millipore, was used to analyze the cytokines and chemokines in the serum samples.
MC38 mouse colon cancer cell line as provided by GenScript were maintained as monolayer culture in DMEM supplemented with 10% fetal bovine serum (FBS), 1% Glutamax™ and 1% Penicillin-Streptomycin at 37° C. in an atmosphere with 5% CO2. The cells were routinely sub-cultured every 2 days to maintain growth at exponential phase. The tumor cells growing in exponential growth phase were harvested by trypsinization, followed by centrifugation at 335×g relative centrifugal force (RCF) in a centrifuge. The supernatant was subsequently removed by aspiration. Cell pellet was re-suspended in approximately 10× volume of cell culture medium and counted. The cell suspension was centrifuged again and processed as above and finally re-suspended in HBSS at a density of 1×10^7 cells per ml. Cell viability was determined to be ≥95% by trypan blue staining. […]
Tumor size and body weights were measured twice weekly.
Tumor size was measured twice per week in 2 dimensions using a caliper (recorded up to one decimal point). Tumor volume, expressed in mm^3, was calculated using the following formula, in which “a” and “b” were the long and the short diameters of a tumor, respectively. […]

[2] = system: cytokines (IFN-γ, IL-6, IL-12p40, and TNF-α) and chemokines (MCP-1 and MIP-2); test: Luminex analysis of serum cytokines and chemokines in MC38 tumor bearing mice; type: in vivo, mouse (C57BL/6)
Method: as §1
The immuno-modulatory effect of Mifamurtide at dose of 30 μg (b.i.w.) in the presence and absence of PD-1 antagonist at dose 5 mg/kg (b.i.w.) was also analysed. Luminex analysis was done to check the levels of cytokines (IFN-γ, IL-6, IL-12p40, and TNF-α) and chemokines (MCP-1 and MIP-2). […] Although all Mifamurtide doses and combinations were tolerated with no early death and sustained effect on body weight (data not shown).

[3] = post (8 hours) vs pre, Mifamurtide 30 μg and/or PD-1 antagonist 5 mg/kg
[4] = post (Day 11) vs pre, Mifamurtide 30 μg and/or PD-1 antagonist 5 mg/kg
[5] = serum, 8 hours post dose, Mifamurtide 30 μg and/or PD-1 antagonist 5 mg/kg
[6] = serum, Day 11, Mifamurtide 30 μg and/or PD-1 antagonist 5 mg/kg
[7] = serum, before dosing, Mifamurtide 30 μg and/or PD-1 antagonist 5 mg/kg group

Substance: Mifamurtide
- TGI % & SEM (with ref. to Mifamurtide) [1]: 0.00%
- TGI % (±SEM) (with ref. to PD-1 Antagonist) [1]: −39.48%
- TGI % (±SEM) (with ref. to vehicle) [1]: −8.36%
- Tumor volume (mm^3) (±SEM) ([1]; mean, i.p.): 2791.64 mm^3
- IFN gamma, Fold change [2, 3]: 0.0
- IL-6, Fold change [2, 3]: 10.85
- MCP-1, Fold change [2, 3]: 1.5
- TNF-alpha, Fold change [2, 3]: 1.6
- IL-12p40, Fold change [2, 4]: 1.0
- MIP-2, Fold change [2, 4]: 0.7
- IFN gamma, Post (8 hours) [2, 5]: 0 picogram/ml
- IL-6, Post (8 hours) [2, 5]: 14.43 picogram/ml
- MCP-1, Post (8 hours) [2, 5]: 23.54 picogram/ml
- TNF-alpha, Post (8 hours) [2, 5]: 3.33 picogram/ml
- IL-12p40, Post (Day 11) [2, 6]: 1.55 picogram/ml
- MIP-2, Post (Day 11) [2, 6]: 13.67 picogram/ml
- IFN gamma, Pre [2, 7]: 0 picogram/ml
- IL-6, Pre [2, 7]: 1.33 picogram/ml
- IL-12p40, Pre [2, 7]: 1.55 picogram/ml
- MCP-1, Pre [2, 7]: 15.9 picogram/ml
- MIP-2, Pre [2, 7]: 20.84 picogram/ml
- TNF-alpha, Pre [2, 7]: 2.13 picogram/ml
